Measured values: patent publication US9040568B2, “Pharmaceutical compositions for the treatment of pain” (AbbVie Inc., priority 2009, dated 2015)

Experiments:
[1] = system: post-operative pain (skin incision of the hind paw); test: Incision model of postoperative pain (mechanical allodynia, von Frey); format: in vivo, rat
Protocol: Paw incision was performed under isoflurane (2-3%) anesthesia and followed procedures previously described (Brennan et al., 1996). Briefly, the plantar aspect of the left hindpaw was placed through a hole in a sterile plastic drape. A 1-cm longitudinal incision was made through the skin and fascia, starting 0.5 cm from the proximal edge of the heel and extending towards the toes, the plantar muscle was elevated and injured longitudinally leaving the muscle origin and insertion points intact. After hemostasis with gentle pressure, the skin was apposed with 2 mattress sutures of 5-0 nylon. Mechanical allodynia was measured using calibrated von Frey filaments (Stoelting, Wood Dale, Ill.) as previously described (Chaplan et al., 1994) in all animals 2 h following surgery. Rats were placed into inverted individual plastic containers (20×12.5×20 cm) on top of a suspended wire mesh grid, and acclimated to the test chambers for 20 min. The von Frey filaments were presented perpendicularly to the plantar surface pointing towards the medial side of the incision (Brennan et al., 1996), and then held in this position for approximately 8 s with enough force to cause a slight bend in the filament. Positive responses included an abrupt withdrawal of the hind paw from the stimulus, or flinching behavior immediately following removal of the stimulus. A 50% paw withdrawal threshold (PWT) was determined using an up-down procedure (Dixon, 1980). Mechanical allodynia was assessed 30 min following i.p. compound administration.

[2] = system: emesis in ferrets; test: Emesis in ferrets; format: in vivo, ferret
Protocol: Fasted male ferrets (Marshall BioResources, North Rose, N.Y.) weighing between 1.0 and 1.7 kg are used to determine the emetic effects. α4β2 PAM (Compound 1) was administered first and thirty minutes later, Compound A was administered at various doses. […] The percentage of animals that experienced emesis at a given dose was recorded.

[3] = target: T1, human α3β4 nicotinic acetylcholine receptor subtype expressed in HEK-293 cells (Homo sapiens, UniProt P30926+P32297); test: Calcium flux assay (FLIPR) in HEK-293 cells expressing human α3β4; format: cell-based; conditions: agonists Compound A and Compound B
T1 construct: expressed in transfected cells
Protocol: Calcium Flux Assays Using Cells Expressing nAChR Subtypes
Human embryonic kidney (HEK) 293 cells stably expressing human α4β2 or α3β4 combinations are grown to confluency in 162 cm^2 tissue culture flasks in DMEM media supplemented with 10% FBS and 25 μg/ml zeocin and 200 μg/ml hygromycin B. IMR-32 neuroblastoma cells (ATCC) are grown to confluency in 162 cm^2 tissue culture flasks in minimum essential media supplemented with 10% FBS and 1 mM sodium pyruvate, 1% non-essential amino acids and 1% antibiotic-antimycotic. […] Calcium flux was measured using calcium-3 assay kit (Molecular Devices, Sunnyvale, Calif.) or fluo-4 (Invitrogen). […] The cells were loaded with 100 μl of the dye per well and incubated at room temperature for up to one hour for HEK 293 clonal stable cell lines or 30 minutes-45 minutes at 37° C. for IMR-32 cells Fluorescence measurements were read simultaneously from all the wells by a Fluorometic Imaging Plate Reader (FLIPR) at an excitation wavelength of 480 nm and an emission wavelength of 520 nm. Baseline fluorescence was measured for the first 6 seconds at which 3× concentrations of modulator/test compounds were added to the cell plate at 50 μl and incubated for five minutes. The fluorescence intensity was captured every second for the first 1 minute followed by every 5 seconds for an additional 4 minutes. […]

T1 sequence (P32297 32-505): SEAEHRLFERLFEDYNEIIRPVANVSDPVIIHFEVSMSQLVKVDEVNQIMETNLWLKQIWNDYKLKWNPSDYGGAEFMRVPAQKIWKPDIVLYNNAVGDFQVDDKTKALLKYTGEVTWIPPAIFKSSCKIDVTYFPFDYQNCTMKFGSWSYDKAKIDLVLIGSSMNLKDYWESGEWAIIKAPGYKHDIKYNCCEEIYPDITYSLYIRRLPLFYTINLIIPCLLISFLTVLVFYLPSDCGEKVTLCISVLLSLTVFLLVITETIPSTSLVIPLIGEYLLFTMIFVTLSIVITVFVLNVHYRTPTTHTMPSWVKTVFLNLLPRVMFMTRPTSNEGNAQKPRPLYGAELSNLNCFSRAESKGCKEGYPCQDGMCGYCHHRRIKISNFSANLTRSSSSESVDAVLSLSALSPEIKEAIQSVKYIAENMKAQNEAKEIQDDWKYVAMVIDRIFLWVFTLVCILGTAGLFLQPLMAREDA
T1 sequence (P30926 22-498): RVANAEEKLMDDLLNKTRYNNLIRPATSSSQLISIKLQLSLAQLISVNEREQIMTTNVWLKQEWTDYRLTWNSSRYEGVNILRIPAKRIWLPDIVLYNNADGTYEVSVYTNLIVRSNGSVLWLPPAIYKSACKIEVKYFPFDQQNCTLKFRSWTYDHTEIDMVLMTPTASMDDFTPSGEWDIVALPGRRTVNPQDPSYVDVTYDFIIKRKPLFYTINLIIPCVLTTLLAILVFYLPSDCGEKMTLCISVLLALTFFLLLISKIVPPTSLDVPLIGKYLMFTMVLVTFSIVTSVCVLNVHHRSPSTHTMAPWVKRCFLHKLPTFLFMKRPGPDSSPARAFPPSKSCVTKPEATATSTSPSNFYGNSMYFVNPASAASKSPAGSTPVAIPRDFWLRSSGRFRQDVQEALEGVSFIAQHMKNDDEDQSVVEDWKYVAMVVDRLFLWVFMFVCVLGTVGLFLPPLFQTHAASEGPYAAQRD

| Structure (SMILES) | percent reversal of mechanical allodynia ([1]; Compound A 10 nmol/kg combined with Compound 1 (3.5 μmol/kg)) | PWT ([1]; Compound A 10 nmol/kg in the presence of Compound 1 (3.5 μmol/kg)) | percent reversal of mechanical allodynia ([1]; Compound A 30 nmol/kg combined with Compound 1 (3.5 μmol/kg)) | PWT ([1]; Compound A 30 nmol/kg in the presence of Compound 1 (3.5 μmol/kg)) | percent reversal of mechanical allodynia ([1]; Compound A 100 nmol/kg combined with Compound 1 (3.5 μmol/kg)) | PWT ([1]; Compound A 100 nmol/kg in the presence of Compound 1 (3.5 μmol/kg)) | PWT ([1]; Compound A alone, 100 nmol/kg) | percent reversal of mechanical allodynia ([1]; Compound A alone, 100 nmol/kg) | PWT ([1]; Compound A alone, 300 nmol/kg) | percent reversal of mechanical allodynia ([1]; Compound A alone, 300 nmol/kg) | ED50 ([1]; Rattus norvegicus, Compound A alone, read-out: ED50 (reversal of mechanical allodynia)) | leftward shift in the DRC of Compound A ([1]; co-administration of Compound 1) | alteration of PWT of the injured paw ([1]; Compound 1 alone, up to 35 μmol/kg, i.p.) | effect on the dose response curve of Compound A for emesis ([2]; Compound 1 3.5 μmol/kg with various doses of Compound A) | emesis ([2]; alone) | effect of the PAM on the concentration responses to the agonists [3] |
| --- | --- | --- | --- | --- | --- | --- | --- | --- | --- | --- | --- | --- | --- | --- | --- | --- |
| Clc1ccc(OC[C@H]2CCN2)cn1 [Compound A, 5-[(2R)-azetidin-2-ylmethoxy]-2-chloropyridine] | 22±14% | 5.0 ± 1.9 g | 54±16% | 9.2 ± 2.1 g | 85±10% | 13.1 ± 1.2 g | 6.0 ± 1.0 g | 25±8% | 12.0 ± 1.6 g | 75±12% | 0.165 µmol/kg | 6 fold |  |  |  |  |
| N#Cc1cccc(-c2nc(-c3cccnc3)no2)c1 [Example 1, 3-(3-(pyridin-3-yl)-1,2,4-oxadiazol-5-yl)benzonitrile] |  |  |  |  |  |  |  |  |  |  |  |  | produced no alteration of PWT | does not shift the dose response curve of Compound A | does not cause emesis | unable to affect the concentration responses to the agonists |
